Results reported in patent US20260327655A1, “SMALL-MOLECULE REGULATED ALTERNATIVE SPLICING” (priority 2023, published 2026).
Like-named read-outs stand apart in the source and are kept apart here.

How the values were obtained:
Assay type in all cases: cell-based
RS1-10 = experiment: Dose-response profiling assay, RS1-10 Flp-In-293 cell line; conditions: 18 hours, FIGS. 9D-9F
Method: Single-copy insertion of an switch construct and subsequent cell-line generation was performed in Flp-In-293 cells according to manufacturer's protocols. The RS1-10 sequence fused to a Firefly Luciferase gene was cloned into a Flp-In compatible pcDNA5/FRT expression vector with a CMV promoter and BGH polyadenylation signal. Resulting Flp-In cell line carried a single-copy expression cassette (RSwitch-controlled) integrated into the genome. The RS1-10 Flp-In cell line was cultured in DMEM+10% FBS, collected after trypsinization, and then dispensed into 96-well plates (cell culture-treated). Each well of the plate was seeded with 1.0×10^5 cells in 100 μL culture medium. Subsequently, either DMSO vehicle or a splice modulator compound at specified doses was added to the wells of the plate. Triplicate wells were used for each condition tested in the experiment. Plates were then incubated for 18 hours in a tissue culture incubator (5% CO2, 37° C.). Endpoint analysis was performed by adding 100 uL of a Luciferase substrate, such as Steady-Luc Firefly Luciferase substrate, to each well of the assay plate. The liquid contents of each was transferred to a 96-well plate, mixed again for 2 min on an orbital shaker, and incubated at room temperature for 5 min. Finally, the luminescent signal from each well was measured with a plate reader. Each plotted data point on a graph in a figure represents a mean of 3 wells+/−standard deviation normalized to vehicle controls. A nonlinear regression curve fit of the plotted data points was generated in graphing software.

[1] = test system: RS1-10 minigene (Firefly Luciferase), HEK-293T cells; experiment: Luciferase induction assay, RS1-10 with splice modulator compounds in HEK-293T cells; conditions: Homo sapiens
Method: (§1) HEK-293T cells were cultured in DMEM+10% FBS, collected after trypsinization, and then dispensed into 96-well plates (cell culture-treated). Each well of the plate was seeded with 1.0×10^5 cells in 100 μL culture medium. After a 1-hour incubation in a tissue culture incubator (5% CO2, 37 degrees C.), plasmid DNA was complexed with a transfection reagent, such as Lipofectamine 3000, and added to respective wells on the plate. Each well received an equivalent of 100 ng of plasmid DNA complexed with 0.15 μL Lipofectamine. Triplicate wells were used for each condition tested in the experiment. The plasmid utilized in the experiment encoded a CMV promoter upstream of the RS I-10 variant that controlled the expression of a Firefly Luciferase gene followed by a SV40 polyadenylation signal. After a 10-minute incubation at room temperature, either DMSO vehicle or specified compound at specified dose was added to the wells of the plate. Plates were then incubated for 18 hours in a tissue culture incubator. Endpoint analysis was performed by adding 100 uL Steady-Luc Firefly Luciferase substrate to each well of the assay plate. After mixing, the liquid contents of each was transferred to a 96-well plate, mixed again for 2 min on an orbital shaker, and incubated at room temperature for 5 min. Finally, the luminescent signal from each well was measured with a with PerkinElmer Envision plate reader. The results of this assay show RS1-10 responded to the majority of the splice modulator compounds used in a dose responsive manner (FIG. 9C). Bars represent mean+/−standard deviation of 3 wells normalized to vehicle controls.

[2] = test system: RS2-3 minigene (Firefly Luciferase), HEK-293T cells; experiment: Luciferase induction assay, RS2-3 with splice modulator compounds in HEK-293T cells; conditions: Homo sapiens
Method: as §1, with “RS2-3” for “RS I-10”, “RS2-3” for “RS1-10”, “used” for “used in a dose responsive manner”, “13C)” for “9C).”

[3] = test system: RS3-13 minigene (Firefly Luciferase), HEK-293T cells; experiment: Luciferase induction assay, RS3-13 with splice modulator compounds in HEK-293T cells; conditions: Homo sapiens
Method: as §1, with “RS3-13” for “the RS I-10 variant”, “RS3-13” for “RS1-10”, “used” for “used in a dose responsive manner”, “14D)” for “9C).”

[4] = RS1-10, 100 nM, 18 hours, n of 3, read-out: Mean fold-induction of luciferase (relative to vehicle control)
[5] = RS1-10, 1,000 nM, 18 hours, n of 3, read-out: Mean fold-induction of luciferase (relative to vehicle control)
[6] = RS2-3, 100 nM, 18 hours, n of 3, read-out: Mean fold-induction of luciferase (relative to vehicle control)
[7] = RS2-3, 1,000 nM, 18 hours, n of 3, read-out: Mean fold-induction of luciferase (relative to vehicle control)
[8] = RS3-13, 100 nM, 18 hours, n of 3, read-out: Mean fold-induction of luciferase (relative to vehicle control)
[9] = RS3-13, 1,000 nM, 18 hours, n of 3, read-out: Mean fold-induction of luciferase (relative to vehicle control)
[10] = 18 h, read-out: Mean fold-induction of luciferase (relative to vehicle control)

Cn1cc2cc(-c3ccc(-c4ccc(C5CN(C6CCOCC6)C5)nn4)c(O)c3)ccc2n1 [22 A, 5-(2-methyl-2H-indazol-5-yl)-2-{6-[1-(oxan-4-yl)azetidin-3-yl]pyridazin-3-yl}phenol]
fold-induction of luciferase signal, dose response (RS1-10): increase in fold-induction of luciferase signal with increasing concentrations

CCN1CC(c2ccc(-c3ccc(-c4cc(C)c5nn(C)cc5c4)cc3O)nn2)C1 [34 A, 5-(2,7-dimethyl-2H-indazol-5-yl)-2-[6-(1-ethylazetidin-3-yl)pyridazin-3-yl]phenol]
fold-induction of luciferase signal, dose response (RS1-10): increase in fold-induction of luciferase signal with increasing concentrations

Cc1cn2nc(-c3ccc(-c4ccc(C5CNC5)nn4)c(O)c3)cc(C)c2n1 [Compound 3A]
fold induction at 0.1 µM [1, 4]: 31.7
fold induction at 1 µM [1, 5]: 94.7
fold induction at 0.1 µM [2, 6]: 2.86
fold induction at 1 µM [2, 7]: 17.6
fold induction at 0.1 µM [3, 8]: 1.81
fold induction at 1 µM [3, 9]: 10.2

Cc1cc(-c2ccc(-c3ccc(C4CNC4)nn3)c(O)c2)cc2cn(C)nc12 [Compound 6A]
fold induction at 0.1 µM [1, 4]: 29.4
fold induction at 1 µM [1, 5]: 69.6
fold induction at 0.1 µM [2, 6]: 2.54
fold induction at 1 µM [2, 7]: 13.9
fold induction at 0.1 µM [3, 8]: 1.69
fold induction at 1 µM [3, 9]: 7.94

Cc1cn2cc(-c3cc(O)c(-c4ccc(C5CNC5)nn4)cc3F)cc(F)c2n1 [Compound 8A]
fold induction at 0.1 µM [1, 4]: 41.5
fold induction at 1 µM [1, 5]: 79.2
fold induction at 0.1 µM [2, 6]: 4.1
fold induction at 1 µM [2, 7]: 16
fold induction at 0.1 µM [3, 8]: 2.11
fold induction at 1 µM [3, 9]: 9.79

Cc1cn2cc(-c3ccc(-c4ccc(C5CNC5)nn4)c(O)c3F)cc(F)c2n1 [Compound 10A]
fold induction at 0.1 µM [1, 4]: 65.9
fold induction at 1 µM [1, 5]: 96
fold induction at 0.1 µM [2, 6]: 11.1
fold induction at 1 µM [2, 7]: 29.2
fold induction at 0.1 µM [3, 8]: 10.1
fold induction at 1 µM [3, 9]: 43.6

Cc1cn2cc(-c3ccc(-c4ccc(C5CN(C(C)C)C5)nn4)c(O)c3)cc(F)c2n1 [Compound 15A]
fold induction at 0.1 µM [1, 4]: 79
fold induction at 1 µM [1, 5]: 82
fold induction at 0.1 µM [2, 6]: 17
fold induction at 1 µM [2, 7]: 39.4
fold induction at 0.1 µM [3, 8]: 20.6
fold induction at 1 µM [3, 9]: 54.5

CCN1CC(c2ccc(-c3ccc(-c4cn5cc(C)nc5c(C)n4)cc3O)nn2)C1 [Compound 32A]
fold induction at 0.1 µM [1, 4]: 53.5
fold induction at 1 µM [1, 5]: 83.1
fold induction at 0.1 µM [2, 6]: 5.9
fold induction at 1 µM [2, 7]: 23.3
fold induction at 0.1 µM [3, 8]: 3.24
fold induction at 1 µM [3, 9]: 23

Cc1cn2cc(-c3ccc(-c4ccc(C5CN(C6CCOC(C)(C)C6)C5)nn4)c(O)c3)cc(F)c2n1 (centres unmarked) [Compound 86A]
fold induction at 0.1 µM [1, 4]: 56.1
fold induction at 1 µM [1, 5]: 85.1
fold induction at 0.1 µM [2, 6]: 7.86
fold induction at 1 µM [2, 7]: 27.7
fold induction at 0.1 µM [3, 8]: 7.54
fold induction at 1 µM [3, 9]: 31.3

Cc1cn2cc(-c3ccc(-c4ccc(C5CN(Cc6cocn6)C5)nn4)c(O)c3)cc(F)c2n1 [Compound 101A]
fold induction at 0.1 µM [1, 4]: 57.5
fold induction at 1 µM [1, 5]: 86.8
fold induction at 0.1 µM [2, 6]: 8.48
fold induction at 1 µM [2, 7]: 31.5
fold induction at 0.1 µM [3, 8]: 6
fold induction at 1 µM [3, 9]: 34.2

Cc1cn2cc(-c3nc(=O)n4cc(N5CCNCC5)cc(C)c4n3)cc(F)c2n1 [Compound 108B]
fold induction at 0.1 µM [1, 4]: 1.16
fold induction at 1 µM [1, 5]: 1.43
fold induction at 0.1 µM [2, 6]: 1.65
fold induction at 1 µM [2, 7]: 1.76
fold induction at 0.1 µM [3, 8]: 1.41
fold induction at 1 µM [3, 9]: 1.66

Cc1cn2cc(-c3nc(=O)n4cc(C5=CCNCC5)ccc4n3)cc(F)c2n1 [Compound 111B]
fold induction at 0.1 µM [1, 10]: 3.06
fold induction at 1 µM [1, 10]: 48.4
fold induction at 0.1 µM [2, 10]: 1.6
fold induction at 1 µM [2, 10]: 2.97
fold induction at 0.1 µM [3, 10]: 1.32
fold induction at 1 µM [3, 10]: 1.63

Cc1cn2cc(-c3nc(=O)n4cc(N5CCN[C@@H](C)C5)cc(C)c4n3)cc(F)c2n1 [Compound 117B]
fold induction at 0.1 µM [1, 4]: 52.1
fold induction at 1 µM [1, 5]: 73.5
fold induction at 0.1 µM [2, 6]: 15.2
fold induction at 1 µM [2, 7]: 39.9
fold induction at 0.1 µM [3, 8]: 22.8
fold induction at 1 µM [3, 9]: 55.6

Cc1cn2cc(-c3nc(=O)n4cc(N5CCN[C@@H](C)C5)cc(F)c4n3)cc(C)c2n1 [Compound 121B]
fold induction at 0.1 µM [1, 4]: 24.6
fold induction at 1 µM [1, 5]: 73.5
fold induction at 0.1 µM [2, 6]: 9.41
fold induction at 1 µM [2, 7]: 28.8
fold induction at 0.1 µM [3, 8]: 9.95
fold induction at 1 µM [3, 9]: 46

Cc1cn2cc(-c3nc(=O)n4cc(N5CCNCC5)ccc4n3)cc(C)c2n1 [Compound 126B]
fold induction at 0.1 µM [1, 4]: 2.06
fold induction at 1 µM [1, 5]: 41.5
fold induction at 0.1 µM [2, 6]: 5.18
fold induction at 1 µM [2, 7]: 17.8
fold induction at 0.1 µM [3, 8]: 3.46
fold induction at 1 µM [3, 9]: 25.2

Cc1cc2cc(-c3nc(=O)n4cc(N5CCNC(C)(C)C5)cc(F)c4n3)cc(C)n2n1 [Compound 135B]
fold induction at 0.1 µM [1, 4]: 16.1
fold induction at 1 µM [1, 5]: 48.8
fold induction at 0.1 µM [2, 6]: 7.61
fold induction at 1 µM [2, 7]: 14.7
fold induction at 0.1 µM [3, 8]: 5.99
fold induction at 1 µM [3, 9]: 16.1

Cc1cc2cc(-c3ccc(-c4ccc(C5CN(C6CCOCC6)C5)nn4)c(O)c3)ccn2n1 [Compound 192A]
fold induction at 0.1 µM [1, 4]: 51.3
fold induction at 1 µM [1, 5]: 70.8
fold induction at 0.1 µM [2, 6]: 4.97
fold induction at 1 µM [2, 7]: 22.7
fold induction at 0.1 µM [3, 8]: 2.18
fold induction at 1 µM [3, 9]: 13.4
